Data published in patent US4670432A, “Pyrazolopyridine derivatives useful in treating inflammation and allergic conditions” (Beecham Group p.l.c., priority 1984, dated 1987).

Legend:
cantharidin mouse ear = test: Mouse Cantharidin Screen (topical anti-inflammatory activity); format: in vivo; conditions: applied with cantharidin, 24 h
Method: Compounds were tested for topical anti-flammatory activity in a cantharidin mouse ear screen, modified from Swingle et al [Swingle, K. F., Reiter, M. J. and Schwartzmiller, D. H., Arch. Int. Pharmacodyn. (1981), 254, 168-176].
25 μg cantharidin (in 10 μl THF/MeOH) was applied to both ears. Compound, in the same solvent, was applied at the same time, to the left ear only. Ears were weighed 24 h after cantharidin application. Percentage inhibition of the acute inflammatory swelling refers to the increase in weight of left ears (catharidin plus compound) compared with solvent-treated negative controls, as a proportion of the increase in weight of right ears (cantharidin alone) over similar controls.

[1] = test system: mouse sensitised to oxazolone; test: Mouse Oxazolone Screen (topical anti-inflammatory activity); format: in vivo; conditions: 1 h before oxazolone challenge, ears weighed 24 h later
Method: Compounds were tested for topical anti-inflammatory activity in a screen using the mouse sensitised to oxazolone, by a method modified from that of Dietrich and Hess [Dietrich, F. M., and Hess, R., Int. Arch. Allergy, (1970), 38, 246-259].
Mice were sensitised with oxazolone (2 mg in 20 μl ethanol) on a shaved area of the abdomen. Five days later, the animals received 10 μl THF/MeOH (1:1 v/v) on the right ear, and the test compound in the same solvent on the left ear. One hour later, the animals were challenged with 100 μg oxazolone in 10 μl acetone on each ear. Ear weights were measured 24 h later. Percentage inhibition of the inflammatory swelling refers to the increase in weight of left ears (oxazolone plus compound) compared with solvent-treated negative controls, as a proportion of the increase in weight of right ears (oxazolone alone) over similar controls.

5-Lipoxygenase = test: RBL-1 5-Lipoxygenase Screen; format: biochemical; conditions: 20 μM; 10,000 g supernatant from RBL-1 cells, 29° C.
Method: 5-Lipoxygenase enzyme was prepared as a 10,000 g supernatant from RBL-1 cells by the method of Jakschik [Jakschik, B. A., Sun, F. F., Lee, L. M. and Steinhoff, M. M., 1980, Biochem. Biophys. Res. Comm. 95, 103]. The 10,000 g supernatant was diluted with homogenization buffer to the equivalent of 1.5-2.5×10^7 cells ml^-1 and made 2 mM with respect to CaCl2. Aliquots of 0.5 ml were then dispensed into tubes, and incubated at 29° C. with 5 γl ethanol or compound in ethanol at the desired concentration for 2 min. Then [1-^14 C] arachidonic acid was added in buffer to give a final concentration of 6.3. μm and 0.2 μCi per incubation, and the reaction continued at 29° C. for 2 min. The reaction was terminated by adding 1 ml of acetone and cooling on ice. 0.5 ml of ice cold saline and 10 μl of 2N formic acid were added, and the mixture was extracted with 2×2 ml of chloroform. The extract was stored under N2 at -20° C. until analysis by chromatography. Activity was measured as the percentage of total radioactivity found in 5-HETE and 5,12-diHETE, and inhibition calculated as the decrease in formation of the sum of these two species in compound-treated incubates relative to control incubates.

Compound	% Inhibition (acute inflammatory swelling, ear weight) (cantharidin mouse ear; 200 μg/ear)	% Inhibition (inflammatory swelling, ear weight) ([1]; 200 μg/ear)	% Inhibition (acute inflammatory swelling, ear weight) (cantharidin mouse ear; 500 μg/ear)	inhibition (decrease in formation of 5-HETE and 5,12-diHETE) (5-Lipoxygenase)	% Inhibition (inflammatory swelling, ear weight) ([1]; 500 μg/ear)
COCCNc1cc(C)nc2c[nH]nc12 [Example 4]	57%	52%			
C=CCNc1ccnc2cn[nH]c12 [Example 7, 7-Allylamino-1H-pyrazolo[4,3-b]pyridine]			83%		
Cc1cc(NCCO)c2[nH]ncc2n1 [Example 3, 7-[2-Hydroxyethylamino]-5-methyl-1H-pyrazolo[4,3-b]pyridine]	76%	65%			
Cc1cc(NCCCN(C)C)c2[nH]ncc2n1 [Example 6, 7-[3-Dimethylaminopropylamino]-5-methyl-1H-pyrazolo[4,3-b]pyridine]			97%		
C=CCNc1cc(C)nc2cn[nH]c12 [Example 1, 7-Allylamino-5-methyl-1H-pyrazolo[4,3-b]pyridine]	88%	62%		39%	
Cc1cc(NCCCO)c2[nH]ncc2n1 [Example 2, 7-[3-hydroxypropylamino]-5-methyl-1H-pyrazolo[4,3-b]pyridine]	82%				82%
C=CCNc1cc(C)nc2cn(C)nc12 [Example 5, 7-Allylamino-2,5-dimethyl-pyrazolo[4,3-b]pyridine]	68%	71%			
